Drawing on ChEMBL document CHEMBL1130398 (J Med Chem, 1997), this text covers IC50 for 19 compounds.

The target of test [1] is T1, Acetylcholinesterase (Rattus norvegicus, UniProt P37136).
T1 sequence (P37136 whole entry): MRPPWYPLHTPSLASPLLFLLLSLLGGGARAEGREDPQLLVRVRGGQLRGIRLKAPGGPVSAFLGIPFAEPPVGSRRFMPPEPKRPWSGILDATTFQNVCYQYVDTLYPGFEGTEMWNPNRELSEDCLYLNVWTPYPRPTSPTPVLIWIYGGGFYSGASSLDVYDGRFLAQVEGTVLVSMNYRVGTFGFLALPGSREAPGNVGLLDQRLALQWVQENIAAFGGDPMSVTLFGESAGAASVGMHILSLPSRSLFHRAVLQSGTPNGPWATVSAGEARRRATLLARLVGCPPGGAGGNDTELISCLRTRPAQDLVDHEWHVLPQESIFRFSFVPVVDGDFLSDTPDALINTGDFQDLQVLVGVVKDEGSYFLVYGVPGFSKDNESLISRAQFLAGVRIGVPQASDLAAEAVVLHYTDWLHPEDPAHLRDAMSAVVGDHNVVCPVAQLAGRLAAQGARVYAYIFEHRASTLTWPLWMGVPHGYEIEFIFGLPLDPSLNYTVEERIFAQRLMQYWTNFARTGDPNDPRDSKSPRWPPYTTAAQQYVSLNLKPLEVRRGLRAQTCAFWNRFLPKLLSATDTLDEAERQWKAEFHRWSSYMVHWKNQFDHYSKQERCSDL
Description: In vitro inhibition of acetylcholinesterase, isolated from rat brain.

Test [2] deals with T2, Cholinesterase (Homo sapiens, UniProt P06276).
T2 sequence (P06276 whole entry): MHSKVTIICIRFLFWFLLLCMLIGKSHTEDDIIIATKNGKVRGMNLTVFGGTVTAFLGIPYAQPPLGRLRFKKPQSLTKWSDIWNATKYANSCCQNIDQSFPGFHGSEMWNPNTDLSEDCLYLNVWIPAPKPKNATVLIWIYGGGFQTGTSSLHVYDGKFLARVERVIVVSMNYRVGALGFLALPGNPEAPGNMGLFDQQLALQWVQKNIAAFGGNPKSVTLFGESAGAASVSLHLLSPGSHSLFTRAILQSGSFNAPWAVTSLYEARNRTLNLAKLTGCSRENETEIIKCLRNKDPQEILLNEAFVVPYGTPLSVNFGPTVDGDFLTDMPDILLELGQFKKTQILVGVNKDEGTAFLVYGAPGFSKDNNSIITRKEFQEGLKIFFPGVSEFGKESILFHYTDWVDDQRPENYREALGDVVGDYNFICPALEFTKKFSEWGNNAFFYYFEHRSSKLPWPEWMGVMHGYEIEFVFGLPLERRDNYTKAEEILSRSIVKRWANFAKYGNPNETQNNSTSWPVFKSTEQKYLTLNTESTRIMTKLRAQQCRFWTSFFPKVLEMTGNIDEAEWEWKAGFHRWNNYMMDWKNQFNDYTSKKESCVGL
Description: In vitro inhibition of Butyrylcholinesterase from human plasma.
Test [3] concerns the target Sodium-dependent serotonin transporter (Rattus norvegicus, UniProt P31652).
Test [4] has as its target Norepinephrine transporter (Rattus norvegicus, UniProt Q9WTR4).
Description: Inhibition of neuronal uptake of Noradrenaline in rat brain homogenate
The target in test [5] is T1, Acetylcholinesterase. The experiment in a line: Inhibitory activity against acetylcholinesterase, isolated from rat brain at 100 uM; No block.
Test [6] concerns the target T2, Cholinesterase. Put plainly: Activity against Butyrylcholinesterase (BChE) from human plasma at 100 uM; No block. The test is classed as cell-free.
For test [7], the target named is T2, Cholinesterase. Put plainly: Activity against Butyrylcholinesterase (BChE) from human plasma at 100 uM; no block. The class given is cell-free.

Where only a bound is given, the exact number is not on record here.

Chain of Norepinephrine transporter (Q9WTR4 whole entry): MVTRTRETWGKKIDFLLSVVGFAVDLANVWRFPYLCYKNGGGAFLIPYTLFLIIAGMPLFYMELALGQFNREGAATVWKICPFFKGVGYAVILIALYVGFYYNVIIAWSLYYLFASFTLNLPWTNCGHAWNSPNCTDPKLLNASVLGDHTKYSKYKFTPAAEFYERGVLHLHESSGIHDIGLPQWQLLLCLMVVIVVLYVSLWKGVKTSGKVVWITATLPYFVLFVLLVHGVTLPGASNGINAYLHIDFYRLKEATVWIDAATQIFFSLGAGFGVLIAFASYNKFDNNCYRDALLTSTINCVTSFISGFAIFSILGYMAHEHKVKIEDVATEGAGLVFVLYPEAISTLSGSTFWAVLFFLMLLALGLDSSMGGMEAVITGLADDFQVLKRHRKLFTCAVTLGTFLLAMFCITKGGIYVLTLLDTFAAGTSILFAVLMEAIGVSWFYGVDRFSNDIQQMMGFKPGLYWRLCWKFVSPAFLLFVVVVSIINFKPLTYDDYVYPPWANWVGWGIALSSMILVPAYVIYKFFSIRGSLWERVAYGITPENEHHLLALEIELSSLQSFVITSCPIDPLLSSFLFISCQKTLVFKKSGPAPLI
Chain of Sodium-dependent serotonin transporter (P31652 whole entry): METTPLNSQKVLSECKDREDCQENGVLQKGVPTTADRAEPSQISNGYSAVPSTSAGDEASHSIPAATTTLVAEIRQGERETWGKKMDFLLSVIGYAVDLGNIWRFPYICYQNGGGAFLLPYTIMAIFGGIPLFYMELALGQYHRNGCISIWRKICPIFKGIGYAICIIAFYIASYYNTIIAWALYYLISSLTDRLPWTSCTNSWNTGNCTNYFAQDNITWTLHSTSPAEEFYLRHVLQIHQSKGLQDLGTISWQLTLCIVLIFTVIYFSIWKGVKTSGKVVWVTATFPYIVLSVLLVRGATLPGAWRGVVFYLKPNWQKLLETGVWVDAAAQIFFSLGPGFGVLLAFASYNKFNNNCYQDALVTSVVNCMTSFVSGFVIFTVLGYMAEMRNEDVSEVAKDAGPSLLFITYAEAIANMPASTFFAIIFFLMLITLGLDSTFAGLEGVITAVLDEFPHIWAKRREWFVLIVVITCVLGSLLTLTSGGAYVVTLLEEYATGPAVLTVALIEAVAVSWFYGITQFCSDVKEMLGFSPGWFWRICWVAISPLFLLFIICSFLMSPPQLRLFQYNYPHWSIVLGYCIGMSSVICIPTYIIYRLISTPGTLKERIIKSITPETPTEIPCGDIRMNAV

One may read the IC50 as the concentration that inhibits the measured activity by half. In the case of `CC1Cc2c(nc3ccccc3c2N)C1(C)O` (centres undefined), the concentration for half-maximal inhibition (IC50) against Acetylcholinesterase [1] amounted to 134 µM; against Cholinesterase [2], 12.2 µM; in test [3], 4.4 µM.
In the case of `Nc1c2c(nc3ccccc13)-c1ccccc1NCC2`, the IC50 at Acetylcholinesterase [1] was found to be 69.4 µM; against Cholinesterase [2], 18.9 µM; in test [4], 3 µM; in test [3], 4.2 µM.
For `Nc1c2ccccc2nc2c1cnc1cc(Cl)ccc12`, the half-inhibitory concentration (IC50) entry against Acetylcholinesterase [5] is “No block”; against Cholinesterase [6], “No block”; in test [4], 0.2 µM; in test [3], more than 95 µM.
In the case of `COc1ccc2c(c1)CCc1c-2nc2ccccc2c1N`, the half-maximal inhibitory concentration (IC50) entry at Cholinesterase [7] is “no block”; against Acetylcholinesterase [1], 47.5 µM; in test [4], 1.4 µM; in test [3], 5.8 µM.
As for `Nc1c2c(nc3ccccc13)CCCc1ccccc1-2`, the concentration for half-maximal inhibition (IC50) at Cholinesterase [2] worked out at 26.4 µM; in test [3], 0.02 µM.
Turning to `Nc1c2c(nc3ccccc13)CCC2`, the IC50 against Cholinesterase [2] was 0.052 µM; in test [4], 0.6 µM; in test [3], 21 µM.
As to `Nc1c2c(nc3ccccc13)CCCCCC2`, the IC50 against Cholinesterase [2] came to 2.3 µM; in test [4], 0.8 µM; in test [3], 1.1 µM.
Consider `CCCCC1=C(C)Cc2c1nc1ccccc1c2N`, for which the concentration for half-maximal inhibition (IC50) against Acetylcholinesterase [1] turned out to be 25 µM; on Cholinesterase [2], 42 µM; in test [3], 13 µM.
On to `CC1=C(C)c2nc3ccccc3c(N)c2C1`, for which the IC50 worked out at 3.5 µM on Acetylcholinesterase [1], 5.9 µM against Cholinesterase [2] and 5.1 µM in test [3].
`CCCCC1(O)c2nc3ccccc3c(N)c2CC1C` (centres undefined): the IC50 at Acetylcholinesterase [1] came to 91 µM; against Cholinesterase [2] it was 81 µM; in test [4], 12 µM; in test [3], 7.1 µM.
For the compound `COc1ccc2c(c1)CCCc1c-2nc2ccccc2c1N`, the values for the IC50 (at Cholinesterase [2]; in test [4]; in test [3]) were more than 100 µM, 3.6 µM and 0.7 µM, respectively.
`Nc1c2c(nc3ccccc13)-c1ccccc1NCCC2`: the IC50 at Acetylcholinesterase [1] amounted to 391 µM; against Cholinesterase [2], 6.7 µM; in test [4], 2.5 µM; in test [3], 6.9 µM.
On to `Nc1c2c(nc3ccccc13)CCCCC2`, for which the IC50 at Acetylcholinesterase [1] was 0.039 µM; on Cholinesterase [2], 0.014 µM; in test [4] it was 6.9 µM; in test [3], 3.6 µM.
In the case of `CC12CCC(c3c1nc1ccccc1c3N)C2(C)C` (centres undefined), the IC50 against Acetylcholinesterase [1] amounted to 110 µM; on Cholinesterase [2], 88 µM; in test [3] it was 13 µM.
For `Nc1c2c(nc3ccccc13)-c1ccccc1CCC2`, the 50% inhibitory concentration (IC50) against Acetylcholinesterase [1] turned out to be 166 µM; against Cholinesterase [2], 36 µM; in test [4], 1.8 µM; in test [3], 4.7 µM.
As to `Nc1c2c(nc3ccccc13)-c1cccc(Cl)c1CC2`, the half-maximal inhibitory concentration (IC50) is 144 µM against Acetylcholinesterase [1], 10.3 µM against Cholinesterase [2], 41 µM in test [4] and 14.3 µM in test [3].
With `Nc1c2c(nc3ccccc13)C1CCC2C1` (centres undefined), the concentration for half-maximal inhibition (IC50) against Cholinesterase [2] came out at 0.041 µM; in test [4] it was 6.1 µM; in test [3], 0.2 µM.
Turning to `Nc1c2c(nc3ccccc13)-c1ccccc1C2`, the IC50 came to 3.1 µM on Cholinesterase [2], 2.3 µM in test [4] and 2.2 µM in test [3].
As to `Nc1c2c(nc3ccccc13)-c1ccccc1CC2`, the figures for the IC50 (on Cholinesterase [2]; in test [4]; in test [3]) were 3.3 µM, 12.1 µM and 4.6 µM, respectively.
